In patent US11439631B2, “Use of a glutarimide derivative to treat diseases related to the aberrant activity of cytokines” (“CHEMIMMUNE THERAPEUTICS” LIMITED LIABILITY COMPANY, priority 2017, dated 2022):

Tests used:
[1] = test system: thermal pain irritation (hot plate); assay: Thermal pain irritation model hot plate; format: in vivo, Balb/c mice; details: Compound 1 30 mg/kg, Ketorol 15 mg/kg, M ± m, n = 12
Procedure: The model of thermal pain irritation “hot plate” was carried out according to the standard procedure [Valdman A. V., Ignatov Y. D. Central mechanisms of pain. L.: Nauka, 1976]. The test compound was administered to Balb/c mice intragastrically, once. After 1, 4, 6, 12, 24 hours after the administration of the preparation, the “hot plate” test was carried out. To conduct the “hot plate” test, the mice were placed on the hot plate, the temperature (+55±1° C.) of which is constant. The time of first manifestations of the pain response in mice (paw licking, jumping) was registered and the mean latent time of the threshold of pain sensitivity (TPS, sec) in each group was calculated.

[2] = test system: mouse model of psoriasis; assay: Mouse model of psoriasis (Aldar cream, 5% imiquimod): ear thickness and clinical signs; format: in vivo, female Balb/c mice; details: Compound 1 30 mg/kg, Neotigason 5 mg/kg, M ± m, n = 20
Procedure: The induction of psoriasis in mice was carried out according to the standard procedure [European Journal of Pharmacology. 2015. V. 756. P. 43-51]. Aldar cream (5% imiquimod) was applied to female Balb/c mice on the inner side of the right ear once daily by 30 mg/mouse for 7 days (0-6th day). Vaseline was applied to the intact animals. […] Euthanasia was carried out 24 hours later (7th day) after the last application of the Aldar cream. Daily on the 0, 2nd, 3rd, 4th, 5th, 6th day, the thickness of the right ear was measured in the morning before the next application of the Aldar cream and before the euthanasia. After the euthanasia, blood was collected from the heart cavities, serum was isolated. The content of MCP1 was determined in blood serum by an enzyme-linked immunosorbent assay method, using test systems Mouse CCL2 (MCP-1) Uncoated ELISA Kit (Invitrogen).
2011. V. 88(1-2). P. 100-113].

| Structure (SMILES) | TPS, % to the values before the administration of the preparation, after 1 hours ([1]; 1 hour after single intragastric dose) [%] | TPS, % to the values before the administration of the preparation, after 4 hours ([1]; 4 hours after single intragastric dose) [%] | TPS, % to the values before the administration of the preparation, after 6 hours ([1]; 6 hours after single intragastric dose) [%] | TPS, % to the values before the administration of the preparation, after 12 hours ([1]; 12 hours after single intragastric dose) [%] | TPS, % to the values before the administration of the preparation, after 24 hours ([1]; 24 hours after single intragastric dose) [%] | The gain of the ear thickness at the determined day of study to day 0, Day 2 ([2]; Day 2, intragastric once daily) | The gain of the ear thickness at the determined day of study to day 0, Day 3 ([2]; Day 3, intragastric once daily) | The gain of the ear thickness at the determined day of study to day 0, Day 4 ([2]; Day 4, intragastric once daily) | Clinical signs of psoriasis, Erythema, Day 4 ([2]; Day 4, score 0-4 (Table 1)) | Clinical signs of psoriasis, Flakes, Day 4 ([2]; Day 4, score 0-4 (Table 1)) | Clinical signs of psoriasis, Thickening, Day 4 ([2]; Day 4, score 0-4 (Table 1)) | The gain of the ear thickness at the determined day of study to day 0, Day 5 ([2]; Day 5, intragastric once daily) [%] | The gain of the ear thickness at the determined day of study to day 0, Day 6 ([2]; Day 6, intragastric once daily) [%] | Clinical signs of psoriasis, Erythema, Day 6 ([2]; Day 6, score 0-4 (Table 1)) | Clinical signs of psoriasis, Flakes, Day 6 ([2]; Day 6, score 0-4 (Table 1)) | Clinical signs of psoriasis, Thickening, Day 6 ([2]; Day 6, score 0-4 (Table 1)) |
| --- | --- | --- | --- | --- | --- | --- | --- | --- | --- | --- | --- | --- | --- | --- | --- | --- |
| O=C(c1ccccc1)c1ccc2n1CCC2C(=O)O (stereo not shown) [Ketorol] | 146.4 ± 16.6 | 195.9 ± 30.0 | 176.6 ± 34.0 | 166.5 ± 25.3 | 159.7 ± 22.4 |  |  |  |  |  |  |  |  |  |  |  |
| COc1cc(C)c(/C=C/C(C)=C/C=C/C(C)=C/C(=O)O)c(C)c1C [Neotigason, reference compound] |  |  |  |  |  | 14.2 ± 1.9*& % | 27.5 ± 1.8*& % | 45.9 ± 2.5*& % | 1.2 ± 0.1*& points | 0.0 ± 0.0& points | 1.4 ± 0.1*& points | 68.9 ± 1.8 | 83.1 ± 1.4 | 1.6 ± 0.1*& points | 0 ± 0& points | 1.3 ± 0.1*& points |
